Assay results from patent publication US20240182470A1, “KRASG12C MUTANT PROTEIN INHIBITOR, PREARATION AND USE THEREOF” (YA THERAPEUTICS INC, priority 2021, published 2024).
pIC50: −log10 of the molar value. Like-named read-outs stand apart in the source and are kept apart here.

Assays:
[1] = system: H358 (KRAS G12C mutant) cells; experiment: Tumor cell proliferation inhibition assay (Cell Titer-Glo, 72 h); format: cell-based; settings: inhibition of tumor cell proliferation, 72 hours with compound, 10% fetal bovine serum, read-out: NCI-H538 IC50(nm)
Summary of the method: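 H358 cells seeded, cultured 24 h, then exposed to serial compound concentrations for 72 h in 10% FBS at 37 °C, 5% CO2. ATP measured by CellTiter-Glo; % inhibition relative to DMSO (max) and medium-only (min) signals. IC50 from sigmoid dose-response fit, binned into categories A–D.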

KRAS-G2C/SOS1 = biological target: T1, KRAS-G2C/SOS1 (Homo sapiens, UniProt P01116, G12C); experiment: KRAS-G12C/SOS1 binding experiment (HTRF); settings: Tag2-KRAS-G12C protein and Tag1-SOS protein
T1 construct: Tag2 (identity not disclosed)
Method: • A) Dilute Tag2-KRAS-G12C protein and Tag1-SOS protein with diluent at 1:100, anti-Tag1-Tb3+ antibody and anti-Tag2-XL665 with detection buffer at 1:100 or 1:25 respectively Dilute. • B) Dilute the compound to be tested with diluent starting from […] concentration, 4 times gradient, a total of 6 concentration gradients, and dilute to 10× stock solution. • C) In a 96-well plate, add 4 uLTag2-KRAS-G12C protein, 4 uL Tagl-SOS protein, 2 ul dilution solution (positive control) or test compound (different concentrations of 10× stock solution) to each well in sequence, a total of 10 ul, and incubate at room temperature for […], add pre-mixed 5 uL anti-Tagl-Tb3+ and 5 uL anti-Tag2-xL665, seal the plate, incubate at room temperature for 2 hours, and read the HTRF signal with a TECAN INFINITEF NANO+ microplate reader.
The ratio of […] and donor excitation signals for each single well was calculated using the formula ratio=665 nm signal value/620 nm signal value×[…]. Data were processed using Graphpadprism5 software. IC50 values were calculated by sigmoidal dose-response curve fitting.

[2] = background statement; cited from earlier work
KRAS G12C = KRAS G12C (Homo sapiens, UniProt P01116, G12C); settings: background statement; cited from earlier work

Compound: 7-(8-Fluoronaphthyl)-6-fluoro-4-(((S)-4-(2-fluoroacryloyl)-3-carbonitrileethylpiperazine)-1-yl)-2-((((S)-1-methylpyrrolidin-2-yl)methoxy)-1,8-naphthyridine [Compound 5]
- pIC50 [1]: ≥ 7.30
- pIC50 (KRAS-G2C/SOS1): > 7.30

Compound: C=CC(=O)N1CC(N2CCN(C(=O)CNc3cc(C4(C)CC4)c(Cl)cc3O)CC2)C1 [ARS-853]
- pharmacokinetic properties [2]: poor

Compound: C=CC(=O)N1CCN(c2ncnc3c(F)c(-c4c(O)cccc4F)c(Cl)cc23)CC1 [ARS-1620]
- tumor effect in vivo (KRAS G12C): induce tumor regression

Compound: C=CC(=O)N1CCN(c2cc(OC[C@@H]3CCCN3C)nc3nc(-c4c(O)cccc4F)ccc23)[C@H](C)C1 [Compound 1, 7-(2-Fluoro-6-hydroxyphenyl)-4-(((R)-4-acryloyl-2-methylpiperazine)-1-yl)-2-(((S)-1-methylpyrrolidin-2-yl)methoxy)-1,8-naphthyridine]
- pIC50 [1]: < 5.70
- pIC50 (KRAS-G2C/SOS1): < 6.30

Compound: C=C(F)C(=O)N1CCN(c2cc(OC[C@@H]3CCCN3C)nc3nc(-c4c(O)cccc4F)c(F)cc23)[C@H](C)C1 [Compound 2, 7-(2-Fluoro-6-hydroxyphenyl)-6-fluoro-4-(((R)-4-(2-fluoroacryloyl)-2-methylpiperazine)-1-yl)-2-(((S)-1-methylpyrrolidin-2-yl)methoxy)-1,8-naphthyridine]
- pIC50 ([1]; Homo sapiens, NCI-H358): < 5.70
- pIC50 (KRAS-G2C/SOS1): < 6.30

Compound: C=CC(=O)N1CCN(c2cc(OC[C@@H]3CCCN3C)nc3nc(-c4c(O)cccc4F)c(F)cc23)C[C@@H]1CC#N [Compound 3]
- pIC50 ([1]; Homo sapiens, NCI-H358): < 5.70
- pIC50 (KRAS-G2C/SOS1): < 6.30

Compound: C=C(F)C(=O)N1CCN(c2cc(OC[C@@H]3CCCN3C)nc3nc(-c4c(O)cccc4F)c(F)cc23)C[C@@H]1CC#N [Compound 4, 7-(2-Fluoro-6-hydroxyphenyl)-6-fluoro-4-(((S)-4-(2-fluoroacryloyl)-3-carbonitrileethylpiperazine)-1-yl)-2-(((S)-1-methylpyrrolidin-2-yl)methoxy)-1,8-naphthyridine]
- pIC50 ([1]; Homo sapiens, NCI-H358): < 5.70
- pIC50 (KRAS-G2C/SOS1): < 6.30

Compound: C=CC(=O)N1CCN(c2cc(OC[C@@H]3CCCN3C)nc3nc(-c4cccc5cccc(F)c45)c(F)cc23)[C@H](C)C1 [Compound 7]
- pIC50 ([1]; Homo sapiens, NCI-H358): ≥ 7.30
- pIC50 (KRAS-G2C/SOS1): > 7.30

Compound: C=CC(=O)N1C2CCC1CN(c1cc(OC[C@@]34CCCN3C[C@H](F)C4)nc3nc(-c4cccc5cccc(F)c45)c(F)cc13)C2 [Compound 28]
- pIC50 ([1]; Homo sapiens, NCI-H358): ≥ 7.30
- pIC50 (KRAS-G2C/SOS1): > 7.30
